Measured values reported in patent publication US9018209B2, “Compounds and methods for the treatment of viruses and cancer” (Yale University, priority 2005, dated 2015).
Read-outs that look alike come from different tables or passages of the source.

Assays:
[1] = test system: MT-2 human T-cells; experiment: Cytotoxicity: inhibition of MT-2 cell growth; format: cell-based
From the text: (§1) The preparation of the analogues 4a-h involved the reaction between 2-bromothiazole 1 with the corresponding 5-amino-2-R-phenol 2, followed by reaction with 4-bromo-2-methyl-2-butene in presence of Cs2CO3 as a base (Scheme 1; see Table 1 for antiviral activities (EC50) and cytotoxicities (IC50) of these compounds, as determined using human MT-2 cells infected with IIIB strain of HIV-1).
(§2) See, Ruiz-Caro, supra. and Lin, et al., Biochem. Pharmacol. 1994, 47, 171-174.

[2] = Cytotoxicity: inhibition of MT-2 cell growth; format: cell-based, human; conditions: human, MT-2 T-cells; Table 2b; MT-2 cells
From the text: as §1, §2

[3] = test system: IIIB strain of HIV-1; experiment: Anti-HIV-1 activity: protection of infected MT-2 cells, MTT colorimetric method; format: cell-based
[4] = Homo sapiens, MT2, Table 1a, cytotoxicity, MT-2 cells, read-out: IC50
[5] = Human immunodeficiency virus 1, IIIB, MT2, Table 1a, heteroaryl derivatives, N/A read as no activity, read-out: EC50
[6] = Table 1B, for 50% inhibition of MT-2 cell growth, triplicate samples
[7] = Human immunodeficiency virus 1, IIIB, MT2, read-out: EC50
[8] = Table 1B, for 50% protection in MT-2 cells, triplicate samples, NA for EC50 > CC50, read-out: EC50
[9] = Homo sapiens, MT2, Table of bicyclic-heteroaryl phenyl amines, cytotoxicity, MT-2 cell assays, read-out: IC50
[10] = Human immunodeficiency virus 1, IIIB, MT2, Table of bicyclic-heteroaryl phenyl amines, MT-2 cell assays, read-out: EC50
[11] = Table 1, cytotoxicity, MT-2 cells, read-out: IC50
[12] = Table 1, compounds 4a-h, human MT-2 cells infected with IIIB strain of HIV-1, N/A read as no activity, read-out: EC50
[13] = Table 1a, cytotoxicity, MT-2 cells, read-out: IC50
[14] = Table 1a, heteroaryl derivatives, N/A read as no activity, read-out: EC50
[15] = Human immunodeficiency virus 1, IIIB, MT2
[16] = Table 3, cytotoxicity, MT-2 cells, read-out: IC50
[17] = Table 3, thiazoles 18-23, N/A read as no activity, read-out: EC50
[18] = Table of bicyclic-heteroaryl phenyl amines, cytotoxicity, MT-2 cell assays, read-out: IC50
[19] = Table of bicyclic-heteroaryl phenyl amines, MT-2 cell assays, read-out: EC50

CC(C)=CCOc1cc(Nc2ncccn2)ccc1Cl [Compound 39d, N-(4-Chloro-3-(3-methylbut-2-enyloxy)phenyl)pyrimidin-2-amine]
IC50 [1, 4]: 2500 nM
IC50 ([1]; Homo sapiens, MT2, Table 2a, cytotoxicity, MT-2 cells, read-out: IC50): < 200 nM
CC50 [2]: 2500 nM
EC50 [3, 5]: 200 nM

CC(C)=CCOc1cc(Nc2ncccn2)ccc1C#N [Compound 39h, N-(4-Cyano-3-(3-methylbut-2-enyloxy)phenyl)pyrimidin-2-amine]
IC50 [1, 4]: < 200 nM
CC50 [1, 6]: 36 nM
EC50 [3, 7]: 17 nM

CCOc1ccnc(Nc2ccc(Cl)c(OCC=C(C)C)c2)n1 [Compound 9k]
CC50 [1, 6]: 19000 nM
EC50 [3, 8]: 41 nM

CC(C)=CCOc1cc(Nc2nccn3cccc23)ccc1Cl [compound 60]
IC50 [1, 9]: 20000 nM
EC50 [3, 10]: 19 nM

COc1ccc(Nc2nccs2)cc1OCC=C(C)C [Compound 4c, N-(4-methoxy-3-(3-methylbut-2-enyloxy)phenylthiazol)-2-amine]
IC50 [1, 11]: 42000 nM
EC50 [3, 12]: 3800 nM

CC(C)=CCOc1cc(Nc2nccc(C)n2)ccc1Cl [Compound 41d, N-(4-Chloro-3-(3-methylbut-2-enyloxy)phenyl)-4-methylpyrimidin-2-amine]
IC50 [1, 4]: < 200 nM
CC50 [1, 6]: 150 nM
EC50 [3, 7]: 39 nM

CC(C)=CCOc1cc(Nc2nccs2)ccc1Cl [Compound 4d, N-(4-chloro-3-(3-methylbut-2-enyloxy)phenylthiazol)-2-amine]
IC50 [1, 11]: 26000 nM
IC50 [1, 13]: 26000 nM
EC50 [3, 12]: 300 nM
EC50 [3, 14]: 300 nM

CC(C)=CCOc1cc(Nc2nccs2)ccc1C [Compound 4b, N-(4-methyl-3-(3-methylbut-2-enyloxy)phenylthiazol)-2-amine]
IC50 [1, 11]: 17000 nM
IC50 [1, 13]: 17000 nM
EC50 [3, 12]: 3000 nM
EC50 [3, 14]: 3000 nM

O=C1Nc2ccc(Cl)cc2[C@@](C#CC2CC2)(C(F)(F)F)O1 [Efavirenz, efavirenz, reference compound]
IC50 [1, 9]: > 100 nM
CC50 [1, 6]: > 100 nM
EC50 [3, 7]: 2 nM

CCc1ccc(Nc2nccs2)cc1OCC=C(C)C [Compound 4e, N-(4-ethyl-3-(3-methylbut-2-enyloxy)phenylthiazol)-2-amine]
IC50 [1, 11]: 31000 nM
EC50 [3, 12]: 5000 nM

COc1ccc(Nc2nc(CO)cs2)cc1OCC=C(C)C [Compound 10c, (2-(4-Methoxy-3-(3-methylbut-2-enyloxy)phenylamino)thiazol-4-yl)methanol]
IC50 ([1]; Homo sapiens, MT2): 80000 nM
EC50 [3, 15]: 9000 nM

COc1ncnc(Nc2ccc(Cl)c(OCC=C(C)C)c2)n1 [Compound 7b]
CC50 [1, 6]: 18000 nM
EC50 [3, 8]: 31 nM

CC(C)=CCOc1cc(Nc2nc(CO)cs2)ccc1C [Compound 10b, (2-(4-Methyl-3-(3-methylbut-2-enyloxy)phenylamino)thiazol-4-yl)methanol]
IC50 ([1]; Homo sapiens, MT2): 23000 nM
EC50 [3, 15]: 13000 nM

CC(C)=CCOc1cc(Nc2ncccn2)ccc1C [Compound 39b, N-(4-Methyl-3-(3-methylbut-2-enyloxy)phenyl)pyrimidin-2-amine]
IC50 [1, 4]: 78000 nM
EC50 [3, 5]: 2800 nM

CC(C)=CCOc1cc(Nc2nc(C)nc(Cl)n2)ccc1Cl [Compound 7e]
CC50 [1, 6]: 40000 nM
EC50 [3, 8]: 12000 nM

COc1cc(N)nc(Nc2ccc(Cl)c(OCC=C(C)C)c2)n1 [Compound 9j]
CC50 [1, 6]: 19000 nM
EC50 [3, 8]: 3000 nM

CC(C)=CCOc1cc(Nc2ncc3ccoc3n2)ccc1Cl [compound 61]
IC50 [1, 9]: 20000 nM
EC50 [3, 10]: 130 nM

CC(C)=CCOc1cc(Nc2nccc(N)n2)ccc1C [Compound 40b, N^2-(4-Methyl-3-(3-methylbut-2-enyloxy)phenyl)pyrimidin-2,4-diamine]
IC50 [1, 4]: 6500 nM
EC50 [3, 5]: 350 nM

CCC(C)=CCOc1cc(Nc2nccs2)ccc1CC (mixture of isomers) [Compound 18e, (E/Z)-N-(4-ethyl-3-(3-methylpent-2-enyloxy)phenyl)thiazol-2-amine]
IC50 [1, 16]: 29000 nM
EC50 [3, 17]: 10000 nM

CC(C)=CCOc1cc(Nc2nccs2)ccc1C(C)C [Compound 4g, N-(4-isopropyl-3-(3-methylbut-2-enyloxy)phenylthiazol)-2-amine]
IC50 [1, 11]: 23000 nM
EC50 [3, 12]: 23000 nM

CSc1ccnc(Nc2ccc(Cl)c(OCC=C(C)C)c2)n1 [Compound 9i]
CC50 [1, 6]: 2800 nM
EC50 [3, 8]: 18 nM

COc1nc(Nc2ccc(Cl)c(OCC=C(C)C)c2)nc(OC)n1 [Compound 7h]
CC50 [1, 6]: 20000 nM
EC50 [3, 8]: 290 nM

COc1cc(OC)nc(Nc2ccc(Cl)c(OCC=C(C)C)c2)n1 [Compound 9h]
CC50 [1, 6]: 28000 nM
EC50 [3, 8]: 250 nM

CC(C)=CCOc1cc(Nc2nccc3occc23)ccc1Cl [compound 54]
IC50 [1, 9]: 25000 nM
EC50 [3, 10]: 6 nM

CC(C)=CCOc1cc(Nc2nccc3ccoc23)ccc1C#N [furopyridine 56b]
IC50 [1, 18]: 91 nM
EC50 [3, 19]: 11 nM

CC(C)=CCOc1cc(Nc2nccc3ccoc23)ccc1Cl [furopyridine 56a]
IC50 [1, 18]: 21000 nM
EC50 [3, 19]: 80 nM

CNc1ncnc(Nc2ccc(Cl)c(OCC=C(C)C)c2)n1 [Compound 7d]
CC50 [1, 6]: 3100 nM
EC50 [3, 8]: 31 nM

CC(C)=CCOc1cc(Nc2nccs2)ccc1C#N [Compound 4h, N-(4-cyano-3-(3-methylbut-2-enyloxy)phenylthiazol)-2-amine]
IC50 [1, 11]: 750 nM
IC50 [1, 13]: 750 nM
EC50 [3, 12]: 210 nM
EC50 [3, 14]: 210 nM

CCC(C)=CCOc1cc(Nc2nccs2)ccc1C (mixture of isomers) [Compound 18b, (E/Z)-N-(4-methyl-3-(3-methylpent-2-enyloxy)phenyl)thiazol-2-amine]
IC50 [1, 16]: 32000 nM
EC50 [3, 17]: 8000 nM

CC(C)=CCOc1cc(Nc2ncnc(N)n2)ccc1Cl [Compound 7c]
CC50 [1, 6]: 48000 nM
EC50 [3, 8]: 390 nM

Clc1ccc(Nc2ncccn2)cc1Oc1ccccc1 [Compound 11b]
CC50 ([1]; Table 2b, MT-2 cells): 30000 nM
fold lower potency (higher EC50) than the corresponding DMA ether ([3]; Table 2b compounds): ca. 100 fold
EC50 ([3]; Table 2b, derivatives of pyrimidine 11, NA for EC50 > CC50, read-out: EC50): 13000 nM
